Source: patent US20250263426A1, “PDE4B INHIBITOR AND USE THEREOF” (Xizang Haisco Pharmaceutical Co., Ltd., priority 2022, published 2025)
Like-named read-outs stand apart in the source and are kept apart here.

Key:
PDE4D2 = PDE4D2 (Homo sapiens (Human), UniProt Q08499); test: Effect of compounds on PDE4D2 activity (fluorescence polarization kit); format: biochemical
Protocol: FP was usually represented by mP value.
[formula] • I∥ (S520): fluorescence intensity in parallel direction • I⊥ (P520): fluorescence intensity in perpendicular direction • G: G factor=1
[formula] • mP(sample): mP of the test compound in a reaction well • mP(negative control): mP in the negative control well • mP(positive control): mP in the positive control well
According to the calculated inhibition rate at each concentration, the IC50 value of each compound was calculated by GraphPad Prism 8 software.

[1] = system: human peripheral blood mononuclear cells (TNF-α release); test: Inhibition of LPS-induced TNF-α release from human peripheral blood mononuclear cells in vitro; format: cell-based; conditions: 4 h; for Emax: read-out: Max inhibition (%)
Protocol: 5. Detection of Inhibitory Activity of Compounds on the Release of Tumor Necrosis Factor-α (TNF-α) from Human Peripheral Blood Mononuclear Cells Induced by Lipopolysaccharide (LPS) In Vitro
The concentration of hPBMC cells was adjusted to 0.25×10^6 cells/mL with RPMI1640 medium and inoculated into a 96-well plate in an amount of 50000 cells per well. […] Incubation was carried out for 4 h in an incubator at 37° C. and 5% CO2. The cell supernatant was collected, and the content of TNF-α in the supernatant sample was detected by human TNF-α Elisa quantitative test kit (Sino Biological, Cat #KIT10602). The IC50 value was calculated using GraphPad Prism software.

PDE4B2 = PDE4B2 (Homo sapiens (Human), UniProt Q07343); test: Effect of compounds on PDE4B2 activity (fluorescence polarization kit)
Excerpt: [formula] • I∥ (S535): fluorescence intensity in parallel direction • I⊥ (P535): fluorescence intensity in perpendicular direction • G: G factor=1

[2] = Homo sapiens, PBMC, read-out: Re IC50
[3] = Homo sapiens, PBMC, hPBMC, 100 ng/mL LPS
[4] = relative IC50, hPBMC, 100 ng/mL LPS, read-out: Re IC50
[5] = Homo sapiens, PBMC, read-out: Re IC50 (nM)

PDE4D2, sequence (Q08499 303-809, change not shown): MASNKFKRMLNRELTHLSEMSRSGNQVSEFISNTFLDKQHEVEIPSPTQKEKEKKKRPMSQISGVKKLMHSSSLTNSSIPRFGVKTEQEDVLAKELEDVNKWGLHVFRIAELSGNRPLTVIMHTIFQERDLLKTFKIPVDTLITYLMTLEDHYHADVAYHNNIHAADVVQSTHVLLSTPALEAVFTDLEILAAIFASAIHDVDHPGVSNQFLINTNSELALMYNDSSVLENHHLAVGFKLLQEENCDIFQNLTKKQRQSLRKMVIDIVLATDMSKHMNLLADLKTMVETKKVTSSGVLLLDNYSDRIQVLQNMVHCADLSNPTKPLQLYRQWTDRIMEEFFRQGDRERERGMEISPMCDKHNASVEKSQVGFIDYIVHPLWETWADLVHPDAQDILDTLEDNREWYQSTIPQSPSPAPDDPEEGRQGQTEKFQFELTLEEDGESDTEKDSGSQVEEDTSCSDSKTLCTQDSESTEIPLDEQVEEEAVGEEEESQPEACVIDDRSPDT
PDE4B2, sequence (Q07343 other isoform, or with tags, fused parts or gaps): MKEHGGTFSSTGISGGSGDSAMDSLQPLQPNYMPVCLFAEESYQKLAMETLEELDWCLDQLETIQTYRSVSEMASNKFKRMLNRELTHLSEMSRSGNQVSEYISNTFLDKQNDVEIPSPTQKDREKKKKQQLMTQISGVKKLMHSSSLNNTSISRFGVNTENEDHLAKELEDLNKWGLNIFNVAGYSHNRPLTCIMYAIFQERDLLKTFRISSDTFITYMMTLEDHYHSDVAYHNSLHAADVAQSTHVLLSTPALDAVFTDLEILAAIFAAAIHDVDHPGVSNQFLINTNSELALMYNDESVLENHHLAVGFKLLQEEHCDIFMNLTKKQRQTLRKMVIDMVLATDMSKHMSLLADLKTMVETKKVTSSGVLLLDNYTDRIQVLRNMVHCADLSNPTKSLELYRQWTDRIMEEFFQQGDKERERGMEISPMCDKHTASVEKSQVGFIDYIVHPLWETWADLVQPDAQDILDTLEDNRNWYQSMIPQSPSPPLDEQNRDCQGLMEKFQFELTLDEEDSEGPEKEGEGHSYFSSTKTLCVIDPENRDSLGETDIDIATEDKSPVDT

| Compound | IC50 (PDE4D2) [µM] | IC50 [1, 2] [nM] | Emax [1, 3] [%] | IC50 (PDE4B2) [µM] | Max inhibition (%) ([1]; hPBMC, 100 ng/mL LPS) | IC50 [1, 4] [nM] | IC50 (PDE4B2; read-out: PDE4B2 IC50) [µM] | Emax ([1]; Homo sapiens, PBMC) [%] | IC50 [1, 5] [nM] |
| --- | --- | --- | --- | --- | --- | --- | --- | --- | --- |
| C#Cc1cnc(C2=CCN(c3nc4c(c(NC5(COC(N)=O)CCC5)n3)[S@+]([O-])CC4)CC2)nc1 [Compound 35] | < 0.01 | < 10 | 85.1 | < 0.01 | – | – | – | – | – |
| C#Cc1cnc(C2=CCN(c3nc4c(c(Nc5cccc(F)c5)n3)[S@+]([O-])CC4)CC2)nc1 [Compound 36-1] | < 0.01 | – | – | – | 73.52 | < 10 | < 0.01 | – | – |
| C#Cc1cnc(C2=CCN(c3nc4c(c(NC5(CN/C(C)=N/C#N)CCC5)n3)[S@+]([O-])CC4)CC2)nc1 [Compound 39] | < 0.01 | < 10 | 71.1 | < 0.01 | – | – | – | – | – |
| C#Cc1ccc(N2CCN(c3nc4c(c(NC5(CO)CCC5)n3)[S+]([O-])CCC4)CC2)cc1 (centres unmarked) [Compound 41] | 0.01 to 0.05 | – | – | < 0.01 | – | – | – | 69.8 | 10 to 50 |
| NC(=O)OCC1(Nc2nc(N3C[C@H]4CC(c5ccc(Cl)cc5)=C[C@H]4C3)nc3c2[S@+]([O-])CC3)CCC1 [Compound 44] | 0.01 to 0.05 | – | – | – | 77.27 | 10 to 50 | < 0.01 | – | – |
| NC(=O)OCC1(Nc2nc(N3CC=C(c4ncc(Cl)cn4)CC3)nc3c2[S@+]([O-])CC3)CCC1 [Compound 48] | < 0.01 | 10 to 50 | 73.9 | < 0.01 | – | – | – | – | – |
| NC(=O)OCC1(Nc2nc(N3CC=C(c4nc5ccccc5o4)CC3)nc3c2[S@+]([O-])CC3)CCC1 [Compound 49] | < 0.01 | – | – | – | 73.46 | < 10 | < 0.01 | – | – |
| Cc1coc(C2=CCN(c3nc4c(c(NC5(COC(N)=O)CCC5)n3)[S@+]([O-])CC4)CC2)n1 [Compound 50] | < 0.01 | < 10 | 72.1 | < 0.01 | – | – | – | – | – |
| NC(=O)OCC1(Nc2nc(N3CC=C(c4ncc(Cl)cn4)CC3)nc3c2[S@+]([O-])CC3)CCCC1 [Compound 52] | < 0.01 | 10 to 50 | – | < 0.01 | – | – | – | – | – |
| NC(=O)OCC1(Nc2nc(N3CC=C(c4nc5ccccc5s4)CC3)nc3c2[S@+]([O-])CC3)CCC1 [Compound 56] | < 0.01 | < 10 | – | < 0.01 | – | – | – | – | – |
| C#Cc1cnc(C2=CCN(c3nc4c(c(NC5(COC(F)F)CCC5)n3)[S+]([O-])CC4)CC2)nc1 (centres unmarked) [Compound 63] | < 0.01 | 10 to 50 | 72.7 | < 0.01 | – | – | – | – | – |
| C#Cc1cnc(C2=CCN(c3nc4c(c(NC5(COC)CCC5)n3)[S@+]([O-])CC4)CC2)nc1 [Compound 64] | < 0.01 | 10 to 50 | 79.9 | < 0.01 | – | – | – | – | – |
| C#Cc1cnc(C2=CCN(c3nc4c(c(NC5(C(C)O)CCC5)n3)[S@+]([O-])CC4)CC2)nc1 (some centres unmarked) [Compound 66] | < 0.01 | – | – | < 0.01 | – | – | – | 67.1 | 10 to 50 |
| C#Cc1ccc(C2=CCN(c3nc4c(c(NC5(CNC(=O)OC)CCC5)n3)[S@+]([O-])CC4)CC2)nc1 [Compound 69] | < 0.01 | < 10 | 70.9 | < 0.01 | – | – | – | – | – |
| COC(=O)NCC1(Nc2nc(N3CC=C(c4ncc(Cl)cn4)CC3)nc3c2[S@+]([O-])CC3)CCC1 [Compound 70] | < 0.01 | < 10 | 55.4 | < 0.01 | – | – | – | – | – |
| [O-][S+]1CCc2nc(N3CCN4c5ccccc5OC[C@H]4C3)nc(NC3(CO)COC3)c21 (some centres unmarked) [Compound 72-3] | 0.01 to 0.05 | – | – | – | 65.66 | < 10 | < 0.01 | – | – |
| [O-][S+]1CCc2nc(N3CCN4c5ccccc5OC[C@@H]4C3)nc(NC3(CO)COC3)c21 (some centres unmarked) [Compound 72-4] | < 0.01 | – | – | – | 62.45 | < 10 | < 0.01 | – | – |
| COC(=O)NCC1(Nc2nc(N3C[C@@H]4CC(c5ncc(Cl)cn5)=C[C@@H]4C3)nc3c2[S@+]([O-])CC3)CCC1 [Compound 73-1] | < 0.01 | < 10 | 67.5 | < 0.01 | – | – | – | – | – |
| COC(=O)NCC1(Nc2nc(N3C[C@H]4CC(c5ncc(Cl)cn5)=C[C@H]4C3)nc3c2[S@+]([O-])CC3)CCC1 [Compound 73-2] | 0.01 to 0.05 | < 10 | 67.9 | < 0.01 | – | – | – | – | – |
| [O-][S@+]1CCc2nc(N3CC4CN(c5ccc6c(c5)CC6)CC4C3)nc(Nc3cccc(F)c3)c21 (some centres unmarked) [Compound 76-1] | 0.01 to 0.05 | – | – | – | 74.65 | 10 to 50 | < 0.01 | – | – |

| Compound | IC50 (PDE4D2) [µM] | IC50 [1, 2] [nM] | Emax [1, 3] [%] | IC50 (PDE4B2) [µM] | Max inhibition (%) ([1]; hPBMC, 100 ng/mL LPS) | IC50 [1, 4] [nM] | IC50 (PDE4B2; read-out: PDE4B2 IC50) [µM] | Emax ([1]; Homo sapiens, PBMC) [%] | IC50 [1, 5] [nM] |
| --- | --- | --- | --- | --- | --- | --- | --- | --- | --- |
| NCC1(Nc2nc(N3CC=C(c4nc5ccccc5s4)CC3)nc3c2[S@+]([O-])CC3)CCC1 [Compound 78] | 0.01 to 0.05 | 10 to 50 | 77.4 | 0.01 to 0.05 | – | – | – | – | – |
| COC(=O)NCC1(Nc2nc(N3CC=C(c4nc5ccccc5s4)CC3)nc3c2[S@+]([O-])CC3)CCC1 [Compound 79] | < 0.01 | 10 to 50 | 65.5 | < 0.01 | – | – | – | – | – |
| [O-][S@+]1CCc2nc(N3CC=C(c4ncc(Cl)cn4)CC3)nc(Nc3ccnc(F)c3)c21 [Compound 85-1] | < 0.01 | – | – | – | 71.38 | < 10 | < 0.01 | – | – |
| COC(=O)NCC(C)(C)Nc1nc(N2CC=C(c3ncc(Cl)cn3)CC2)nc2c1[S@+]([O-])CC2 [Compound 88] | < 0.01 | – | – | – | 74.9 | < 10 | < 0.01 | – | – |
| CNC(=O)OCC1(Nc2nc(N3CC=C(c4ncc(C5CC5)cn4)CC3)nc3c2[S@+]([O-])CC3)CCC1 [Compound 90] | 0.01 to 0.05 | 10 to 50 | 69.5 | 0.01 to 0.05 | – | – | – | – | – |
| C#Cc1ccc(C2=CCN(c3nc4c(c(NC5([C@H](C)O)CCC5)n3)[S@+]([O-])CC4)CC2)nc1 [Compound 95-2] | < 0.01 | – | – | – | 70.67 | < 10 | < 0.01 | – | – |
| C#Cc1ccc(C2=CCN(c3nc4c(c(NC5([C@@H](C)O)CCC5)n3)[S@@+]([O-])CC4)CC2)nc1 [Compound 95-3] | < 0.01 | – | – | – | 81.97 | < 10 | < 0.01 | – | – |
| C#Cc1cnc(C2=CCN(c3nc4c(c(NC5([C@@H](C)O)CCC5)n3)[S@+]([O-])CC4)CC2)nc1 [Compound 96-1] | 0.01 to 0.05 | – | – | – | 72.83 | < 10 | < 0.01 | – | – |
| C#Cc1cnc(C2=CCN(c3nc4c(c(NC5([C@H](C)O)CCC5)n3)[S@+]([O-])CC4)CC2)nc1 [Compound 96-2] | < 0.01 | – | – | – | 81.63 | < 10 | < 0.01 | – | – |
| C#Cc1cnc(C2=CCN(c3nc4c(c(NC5([C@H](C)O)CCC5)n3)[S@@+]([O-])CC4)CC2)nc1 [Compound 96-4] | 0.01 to 0.05 | – | – | – | 70.23 | 10 to 50 | 0.01 to 0.05 | – | – |
| CC#Cc1ccc(C2=CCN(c3nc4c(c(NC5(COC(N)=O)CCC5)n3)[S@+]([O-])CC4)CC2)nc1 [Compound 98] | < 0.01 | < 10 | 72.7 | < 0.01 | – | – | – | – | – |
| CC#Cc1ccc(C2=CCN(c3nc4c(c(NC5(CNC(=O)OC)CCC5)n3)[S@+]([O-])CC4)CC2)nc1 [Compound 100] | < 0.01 | < 10 | 79.2 | < 0.01 | – | – | – | – | – |
| CC#Cc1ccc(C2=CCN(c3nc4c(c(NC(C)(C)COC(N)=O)n3)[S@+]([O-])CC4)CC2)nc1 [Compound 101] | < 0.01 | < 10 | 80 | < 0.01 | – | – | – | – | – |
| CNC(=O)OCC(C)(C)Nc1nc(N2CC=C(c3ncc(Cl)cn3)CC2)nc2c1[S@+]([O-])CC2 [Compound 104] | 0.01 to 0.05 | 10 to 50 | 78.8 | 0.01 to 0.05 | – | – | – | – | – |
| Cc1cnc2c(c1)OC[C@@H]1CN(c3nc4c(c(NC(C)(C)COC(N)=O)n3)[S@+]([O-])CC4)CCN21 [Compound 142-1] | 0.01 to 0.05 | – | – | – | – | – | < 0.01 | – | – |
| Cc1cnc2c(c1)OC[C@H]1CN(c3nc4c(c(NC(C)(C)COC(N)=O)n3)[S@+]([O-])CC4)CCN21 [Compound 142-2] | 0.01 to 0.05 | – | – | – | – | – | 0.01 to 0.05 | – | – |
| CCOc1cnc2c(c1)OC[C@@H]1CN(c3nc4c(c(NC(C)(C)COC(N)=O)n3)[S+]([O-])CC4)CCN21 (some centres unmarked) [Compound 146-1] | < 0.01 | – | – | – | – | – | 0.01 to 0.05 | – | – |
| CCOc1cnc2c(c1)OC[C@H]1CN(c3nc4c(c(NC(C)(C)COC(N)=O)n3)[S+]([O-])CC4)CCN21 (some centres unmarked) [Compound 146-2] | 0.01 to 0.05 | – | – | – | – | – | 0.01 to 0.05 | – | – |
| CCOc1cnc2c(c1)OC[C@@H]1CN(c3nc4c(c(NC(C)(C)CNC(=O)OC)n3)[S@+]([O-])CC4)CCN21 [Compound 147-1] | 0.05 to 0.1 | – | – | – | – | – | 0.01 to 0.05 | – | – |
| CCOc1cnc2c(c1)OC[C@H]1CN(c3nc4c(c(NC(C)(C)CNC(=O)OC)n3)[S@+]([O-])CC4)CCN21 [Compound 147-2] | 0.05 to 0.1 | – | – | – | – | – | 0.01 to 0.05 | – | – |
